According to patent publication US20110104179A1 (priority 2009, published 2011):
Several values for one entry are separate records, joined by “and”; a condition that tells them apart may be missing. Equal entries are not always repeated. Where two headings read alike, the source gives them in different places. Ends that are not written are not given here.

Tests used:
RgpB = RgpB (Porphyromonas gingivalis, UniProt P95493); details: comparison value, cited from earlier work
[1] = molecular target: Lysine-gingipains (P. gingivalis ATCC 33277 whole cell proteases) (Porphyromonas gingivalis, UniProt B2RLK2); type: cell-based, Porphyromonas gingivalis ATCC 33277; details: for Activity with ATCC33277, Lys-gingipains: peptide alone 100 μM, activity ± standard deviation
[2] = tested on: Arginine-gingipains (P. gingivalis ATCC 33277 whole cell proteases); type: cell-based, Porphyromonas gingivalis ATCC 33277
[3] = tested on: Arginine-gingipains (P. gingivalis W50 whole cell proteases); type: cell-based, Porphyromonas gingivalis W50
[4] = 200 μM peptide concentration (FIG. 2, Table 2)

Compound | Ki (RgpB; read-out: RgpB Ki) | IC50 (RgpB; read-out: IC50 against RgpB) | Protease activity (%) of the Lysine-gingipains, ATCC 33277 Whole Cell Proteases ([1]; 100 μM peptide) | Protease activity (%) of the Lysine-gingipains, ATCC 33277 Whole Cell Proteases ([1]; 200 μM peptide) | inhibition of whole cell Lys-specific proteolytic activity [1, 4] | Protease activity (%) of the Lysine-gingipains, ATCC 33277 Whole Cell Proteases ([1]; 300 μM peptide) | inhibition of whole cell Lys-specific proteolytic activity ([1]; concentration not given) | Activity with ATCC33277, Lys-gingipains [1] | Activity with ATCC33277, Arg-gingipains [2] | Protease activity (%) of the Arginine-gingipains, ATCC 33277 Whole Cell Proteases [2] | inhibition of whole cell Arg-specific proteolytic activity [2] | Protease activity (%) of the Arginine-gingipains, W50 Whole Cell Proteases [3]
[H]/N=C(\N/C(=N/[H])NCCCCCCNC(=N)NC(=N)Nc1ccc(Cl)cc1)Nc1ccc(Cl)cc1 [chlorhexidine] | 262 µM |  |  |  |  |  |  |  |  |  |  | 
C[C@H]1c2cccc(O)c2C(=O)C2=C(O)[C@]3(O)C(=O)C(C(N)=O)=C(O)[C@@H](N(C)C)[C@@H]3[C@@H](O)[C@@H]21 [doxycycline] |  | 3 µM |  |  |  |  |  |  |  |  |  | 
LPQEVLNENLLRF [αS1-casein(11-23)] |  |  | 64% | 43% | ~60% | 34% | ~60% | 2.73 ± 0.60 | 18.00 ± 3.53 | 38% and 39% and 62% | ~70% and 40% and ~60% | 22%
YQEPVLGPVRGPF [β-casein(193-205)] |  |  |  |  |  |  | not as potent |  |  |  |  | 
YQEPVLGPVRGPFPIIV [β-casein(193-209)] |  |  | 71% | 59% | 50% | 49% | 40-50% | 3.03 ± 1.20 | 20.03 ± 2.51 | 50% and 69% | 50% and 30% and 40-50% | 46%
